Laboratory results as given in patent publication US9629830B2, “EphA4 inhibitors as neuroprotective agents” (The Hong Kong University of Science and Technology, priority 2013, dated 2017).
Where two headings read alike, the source gives them in different places.

Columns and labels:
[1] = Blood and brain penetration assay after single oral administration; type: in vivo, mouse; conditions: for half-life: C57Bl/6, mouse, po, 50 mg/kg
Protocol: Five microliters of sample was injected and eluted by the following program at the flow rate of 0.6 ml/min: 0-4.0 min, 10˜35% ACN; 4.0-4.1 min, 100% ACN; 7.0-7.1 min, 100-10% ACN, 7.1-10 min, 10% ACN. Detection of Rhy was carried out with the positive ionization mode. The ESI conditions were as follows: declustering potential 120 V, entrance potential 10 V, collision cell exit potential 12 V, collision energies 38 V, curtain gas 50 (arbitrary units), collision gas 10 (arbitrary units), ion spray voltage […], source temperature 500° C., ion source gas 1:45 (arbitrary units), ion source gas 2:60 (arbitrary units).
Male C57Bl/6 mice (16-week-old) were obtained from the Hong Kong University of Science and Technology (HKUST) Animal Care Facility and acclimatized in the laboratory a week before the study. […] The procedures in this study were approved by HKUST Animal Ethics Committee and conducted in accordance with the Code of Practice and Use of Animals for Experimental Purpose.
Plasma was obtained by centrifuging the blood at 3,800×g at 4° C. for 10 min. Mouse brains were collected after a 30-min cardiac perfusion with 0.9% saline. Whole mouse brain with the addition of 80 μL 0.9% saline was subjected to homogenization for 10 s (Precellys Minilys) at 4000 rpm with ceramic beads. […] Samples were centrifuged at 12,000×g at 4° C. for 10 min. The supernatants were transferred to a new tube and the remaining samples were subjected to another extraction. The supernatants obtained from the two extractions were pooled and evaporated to dryness. The dried samples were dissolved in 0.3 mL methanol, vortexed for 30 s followed by ultrasonication for 5 min and centrifuged at 17,900×g for 5 min. The supernatant (80 μL) was transferred into vial for UPLC-MS/MS analysis.

APP/PS1 mutant mice = assay: HFS-induced hippocampal LTP in WT and APP/PS1 mice after in vivo treatment; set-up: species or system mouse; conditions: Rhy oral 50 mg·kg−1·day−1 for 3 weeks
From the text: APP/PS1 double-transgenic mice were obtained from Jackson Laboratory (B6C3-Tg[APPswe, PSEN1dE9]85Dbo/J)^66. These mice were generated by incorporating a human/murine APP construct bearing the Swedish double mutation and the exon-9-deleted PSEN1 mutation (APPswe+PSEN1/dE9). APP transgenic mice (Tg2576) expressing a double mutant of human AβPP (Lys^670→Asn^670, Met^671→Leu^671) were also used^31. Both sexes were used for experiments, and all mice used in this study were produced by the Animal Care Facility of The Hong Kong University of Science and Technology. The genotype was confirmed by polymerase chain reaction analysis of tail biopsies. Four to five mice of the same sex were housed in a cage with food and water ad libitum with a 12-hour light/dark cycle.
To investigate the effect of blocking EphA4 signaling by KYL peptide in AD mice, 4-5-month-old AD transgenic mice were implanted with Alzet mini-osmotic pumps, model 1004, pumping its contents at 0.11 μL/h for 28 days. Pumps were loaded with either 0.23 μg/μL KYL peptide (17 μg) or vehicle solvent in artificial cerebrospinal fluid (CSF). The mini-osmotic pumps were adjusted intracerebroventricularly in the right hemisphere. EphA4 in the CA1 regions of APP/PS1 mice was knocked down by injecting vesicular stomatitis virus glycoprotein G-pseudotyped lentiviral particles with pFUGW-shEphA4 bilaterally into the corresponding regions as described previously^58.
For LTP recordings, mouse brains were immediately dissected after sacrifice and soaked in ice-cold 95% O2/5% CO2 (aCSF)^58. Brain slices (300 μm thick) were prepared using a vibrating tissue slicer (HM650V; Thermo), and soaked in oxygenated buffer for 2 h at 32° C. […] For treatment with EphA4 inhibitors, the slices were pretreated with peptides or chemicals for 1 h before application of Aβ. fEPSPs were recorded using a MED64 multichannel recording system, and the data were collected from the dendritic layer of area CA1 at a sampling rate of 10 kHz. For each slice, the baseline stimulus intensity was set at the level that elicited ˜50% of the maximum fEPSP response determined according to the input-output curve. […] The magnitude of LTP was quantified as a percentage change in the fEPSP slope (10%-90%) taken during the 60-min interval after LTP induction.
WT and APP/PS1 mutant (Tg) mice were orally administered with corylin ([…]) by daily gavage for 3-4 weeks prior to LTP measurements. LTP induced by 3 trains of HFS (100 Hz for 1 s delivered 30 s apart) in the CA1 region of the SC pathway of the hippocampus was measured. The magnitude of LTP was quantified as the percentage change in the fEPSP slope (10-90%) taken during the 60-min interval after LTP induction.

[2] = mouse, single oral 50 mg/kg, rounded

CC[C@H]1CN2CC[C@]3(C(=O)Nc4ccccc43)[C@@H]2C[C@@H]1/C(=C\OC)C(=O)OC [Rhy, methyl (7β,16E,20α)-16-(methoxymethylene)-2-oxocorynoxan-17-oate]
detection in plasma and brain ([1]; 10 min after single oral 50 mg/kg): readily detected | level of Rhy as percentage of Cmax ([1]; after 3 h of administration, in both plasma and brain): 10% | half-life ([1]; male, brain, mouse, single oral 50 mg/kg, perfused brain, read-out: t1/2 in brain (converted)): 1.79 ± 0.455 h | half-life ([1]; male, brain, mouse, single oral 50 mg/kg, rounded, read-out: t1/2 in brain (converted)): ~2 h | half-life ([1]; male, plasma, mouse, single oral 50 mg/kg, read-out: t1/2 in plasma): 1.35 ± 0.201 h | Cmax ([1]; male, C57Bl/6, plasma, mouse, single oral 50 mg/kg): 583 ± 32.9 ng/mL | Tmax ([1]; male, C57Bl/6, plasma, mouse, single oral 50 mg/kg, read-out: Tmax in plasma (converted)): 0.514 h | Tmax ([1]; male, C57Bl/6, mouse, single oral 50 mg/kg, perfused brain, read-out: Tmax in brain (converted)): 0.917 h | blood-brain barrier passage ([1]; mouse, oral administration): can pass through the blood-brain barrier | Cmax in brain ([1]; mouse, single oral 50 mg/kg, perfused brain): 442.73±27.38 ng/brain | time at which brain level peaked [1, 2]: ~1 h | time at which plasma concentration peaked [1, 2]: ~0.5 h | time at which plasma concentration was reduced by 50% [1, 2]: ~1.5 h | mean fEPSP slope, last 10 min after LTP induction (APP/PS1 mutant mice; APP/PS1 (Tg) mice, Tg control 147.6±3.5%): 198.1±8.9% | mean fEPSP slope, last 10 min after LTP induction (APP/PS1 mutant mice; WT mice, WT control 194.0±7.0%): 180.5±7.7%
